Laboratory results published in paper PMC8838460, “Expression, Purification, and Comparative Inhibition of Helicobacter pylori Urease by Regio-Selectively Alkylated Benzimidazole 2-Thione Derivatives” (Molecules, 2022).
Where two headings read alike, the source gives them in different places.

Legend:
Rat [1] = details: TOPKAT structural similar compounds, cited from earlier work
Rat [2] = details: TOPKAT structural similar compounds; ref CPDB; cited from earlier work
Mouse = test system: Mouse; parameters: method as in earlier work; details: TOPKAT structural similar compounds; ref CPDB; cited from earlier work
H. pylori Urease = H. pylori Urease (Helicobacter pylori, UniProt P69996); assay: Urease inhibition assay (indophenol method) on recombinant H. pylori urease; format: biochemical; details: for Type of inhibition (in words): H. pylori urease; for Vmax: H. pylori urease with inhibitor
Sequence of H. pylori Urease (P69996 whole entry): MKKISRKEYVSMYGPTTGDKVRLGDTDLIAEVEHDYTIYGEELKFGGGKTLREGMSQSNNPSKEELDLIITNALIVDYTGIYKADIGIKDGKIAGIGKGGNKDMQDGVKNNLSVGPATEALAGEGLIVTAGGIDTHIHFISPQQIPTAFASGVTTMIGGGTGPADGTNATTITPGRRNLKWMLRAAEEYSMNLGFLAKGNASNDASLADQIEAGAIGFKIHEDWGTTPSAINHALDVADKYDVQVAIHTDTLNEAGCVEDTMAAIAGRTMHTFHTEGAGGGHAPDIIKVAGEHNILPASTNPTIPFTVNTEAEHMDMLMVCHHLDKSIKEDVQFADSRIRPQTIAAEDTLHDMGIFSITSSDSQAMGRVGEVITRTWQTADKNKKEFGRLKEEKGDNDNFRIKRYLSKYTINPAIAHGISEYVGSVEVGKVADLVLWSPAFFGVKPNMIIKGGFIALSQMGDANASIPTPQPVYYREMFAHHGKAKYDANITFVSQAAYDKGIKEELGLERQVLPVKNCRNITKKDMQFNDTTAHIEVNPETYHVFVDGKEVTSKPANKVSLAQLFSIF
Sequence of H. pylori Urease (P14916 whole entry, further chain): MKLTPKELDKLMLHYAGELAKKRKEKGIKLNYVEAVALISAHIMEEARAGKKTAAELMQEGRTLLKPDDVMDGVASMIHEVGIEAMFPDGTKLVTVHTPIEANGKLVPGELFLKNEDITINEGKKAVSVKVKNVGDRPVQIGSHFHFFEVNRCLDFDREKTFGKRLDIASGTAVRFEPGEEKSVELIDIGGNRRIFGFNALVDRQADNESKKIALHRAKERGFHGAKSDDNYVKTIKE
Method: (§1) Reaction mixtures comprising 25 μL of urease enzymes solution and 55 μL of sodium phosphate buffers containing 100 mM urea were incubated with 5 μL of tested compounds above (0.5 mM concentration) at 30 °C for 15 min in 96-well plates. Urease activity was determined by measuring the ammonia production using the indophenol method as described by Weatherburn. Briefly, 45 μL of each phenol reagent (1% w/v phenol and 0.005% w/v sodium nitroprussside) and 70 μL of alkali reagent (0.5% w/v NaOH and 0.1% active chloride NaOCl) were added to each well. The absorbance at 630 nm was measured after 50 min using a microplate reader (SPECTRO star Nano, Ortenberg, Germany). All reactions were performed in triplicate in a final volume of 200 μL. The results (change in absorbance per min) were processed by using MARS Data Analysis Version 2.41, software (SPECTRO star Nano, Ortenberg, Germany).
(§2) The assays were performed at pH 6.8. The percentage of inhibitions were calculated from the formula 100 − (ODtest well/ODcontrol) × 100. Thiourea was used as the standard inhibitor of Urease.
(§3) The concentrations of the test compounds that inhibited the hydrolysis of substrates by 50% (IC50) were determined by monitoring the effect of various concentrations of these compounds in the assays on the inhibition values. The IC50 values were then calculated using Graph Pad Prism 6 software.

J. bean Urease = target: T1, J. bean Urease (Canavalia ensiformis, UniProt P07374); assay: Urease inhibition assay (indophenol method) on commercial Jack bean urease; format: biochemical; details: for Type of inhibition (in words): J. bean urease; for Vmax: J. bean urease with inhibitor
T1 construct: purchased
T1 sequence (P07374 whole entry, looked up): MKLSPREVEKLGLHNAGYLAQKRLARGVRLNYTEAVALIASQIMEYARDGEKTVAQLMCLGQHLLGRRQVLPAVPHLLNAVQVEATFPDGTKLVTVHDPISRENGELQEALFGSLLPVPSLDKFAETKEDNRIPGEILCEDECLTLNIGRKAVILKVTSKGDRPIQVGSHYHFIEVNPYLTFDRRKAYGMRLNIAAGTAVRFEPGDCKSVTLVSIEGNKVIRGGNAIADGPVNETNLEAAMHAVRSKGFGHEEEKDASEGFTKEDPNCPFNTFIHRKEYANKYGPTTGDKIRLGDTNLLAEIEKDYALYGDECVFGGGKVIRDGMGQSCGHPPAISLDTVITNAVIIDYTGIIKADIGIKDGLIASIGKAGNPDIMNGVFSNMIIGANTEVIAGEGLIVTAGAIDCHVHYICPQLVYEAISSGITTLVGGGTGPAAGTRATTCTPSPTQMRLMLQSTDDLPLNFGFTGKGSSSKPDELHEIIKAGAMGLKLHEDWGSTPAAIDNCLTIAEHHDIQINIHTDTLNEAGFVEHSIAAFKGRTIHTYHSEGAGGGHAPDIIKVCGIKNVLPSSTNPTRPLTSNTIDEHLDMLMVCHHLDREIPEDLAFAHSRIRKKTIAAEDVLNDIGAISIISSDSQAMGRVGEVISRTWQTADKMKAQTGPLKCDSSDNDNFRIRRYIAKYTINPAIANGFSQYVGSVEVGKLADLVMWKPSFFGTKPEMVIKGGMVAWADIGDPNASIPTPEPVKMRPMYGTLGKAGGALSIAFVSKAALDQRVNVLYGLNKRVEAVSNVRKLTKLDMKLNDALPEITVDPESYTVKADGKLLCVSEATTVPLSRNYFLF
Method: as §1, §2, §3

fibroblast cells = assay: In vitro cytotoxicity, neutral red assay on fibroblast cells; format: cell-based; details: for inhibition at 0.003 µM: Conc. 0.003 µM; for inhibition at 0.007 µM: Conc. 0.007 µM; for inhibition at 0.015 µM: Conc. 0.015 µM; for inhibition at 0.031 µM: Conc. 0.031 µM; for inhibition at 0.064 µM: Conc. 0.064 µM; for inhibition at 0.123 µM: Conc. 0.123 µM; for cytotoxicity (in words): in high concentrations
Method: The active compounds were selected and subjected to cytotoxicity evaluation using the neutral red assay. Cytotoxic assays were performed according to Borenfreund and Puerner.

## CCOCSc1nc2ccccc2n1COCC
other
  melting point: 108 °C

## N#CCSc1nc2ccccc2n1CC#N
other
  melting point: 161 to 163 °C

## OCCCSc1nc2ccccc2[nH]1
other
  melting point: 119 °C

## CC(O)CSc1nc2ccccc2[nH]1 (stereo not drawn)
other
  melting point: 250 °C

## CCCCCCCCCCCSc1nc2ccccc2[nH]1
other
  melting point: 104 °C

## CCOC(CSc1nc2ccccc2[nH]1)OCC
other
  melting point: 80 °C

## CCCCSc1nc2ccccc2[nH]1
other
  melting point: 145 °C

## c1ccc2[nH]c(SCC3CO3)nc2c1 (stereo not drawn)
other
  melting point: 211 °C

## NC(=O)Nc1ccccc1
Rat [1]; ref IIFBA4 12;195;69
  Actual Endpoint (-log C), Rat Oral LD50: 1.833 -log C

## CC(O)CN (stereo not drawn) [1-AMINO-2-PROPANOL]
Rat [1]; ref JACTDZ 6(1);53;87
  Actual Endpoint (-log C), Rat Oral LD50: 1.554 -log C

## NC(=S)Nc1ccccc1 [1-PHENYL-2-THIOUREA]
Rat [1]; ref JMPCAS 4;109;61
  Actual Endpoint (-log C), Rat Oral LD50: 4.705 -log C

## Sc1nc2ccccc2s1 [2-Mercaptobenzothiazole]
Rat [2]
  Actual Endpoint (-log C), Carcinogenic Potency TD50 Rat: 2.687 -log C

## CC(N)=O [Acetamide]
Mouse
  Actual Endpoint (-log C), Carcinogenic Potency TD50 Mouse: 1.293 -log C
Rat [2]
  Actual Endpoint (-log C), Carcinogenic Potency TD50 Rat: 2.516 -log C

## CC(=O)Nc1ccc(O)cc1 [Acetaminophen, reference compound]
Rat [2]
  Actual Endpoint (-log C), Carcinogenic Potency TD50 Rat: 2.485 -log C

## Oc1ccccc1O [Catechol]
Mouse
  Actual Endpoint (-log C), Carcinogenic Potency TD50 Mouse: 2.654 -log C

## CC(C)(Oc1ccc(C2CC2(Cl)Cl)cc1)C(=O)O (stereo not drawn) [Ciprofibrate, reference compound]
Mouse
  Actual Endpoint (-log C), Carcinogenic Potency TD50 Mouse: 4.669 -log C

## Sc1nc2ccccc2[nH]1 [Compound 2, 1H-Benzimidazole-2(3H)-thione]
H. pylori Urease
  Type of inhibition (in words): non-competitive
  Vmax: 1.54 ± 0.057 µmol/min
J. bean Urease
  IC50: 260 ± 8 µM
  Type of inhibition (in words): non-competitive
  Vmax: 1.53 ± 0.005 µmol/min
Fibroblast cells; Fibroblast
  inhibition at 0.009 µM: 20%
Fibroblast cells; fibroblast cells
  inhibition at 0.003 µM: 40.4%
  inhibition at 0.007 µM: 44%
  inhibition at 0.015 µM: 49.4%
  inhibition at 0.031 µM: 49.5%
  inhibition at 0.064 µM: 80.6%
  inhibition at 0.123 µM: 82.5%
  cytotoxicity (in words): not cytotoxic

## CCOCn1c(=S)[nH]c2ccccc21 [Compound 5, 1-(Ethoxymethyl)-1H-benzo[d]imidazole-2(3H)-thione]
H. pylori Urease
  Type of inhibition (in words): uncompetitive
  Vmax: 1.52 ± 0.024 µmol/min
J. bean Urease
  IC50: 290 ± 18 µM
  Type of inhibition (in words): non-competitive
  Vmax: 1.60 ± 0.04 µmol/min
Fibroblast cells; fibroblast cells
  inhibition at 0.003 µM: -28.8%
  inhibition at 0.007 µM: -15.9%
  inhibition at 0.015 µM: 4.6%
  inhibition at 0.031 µM: 26.2%
  inhibition at 0.064 µM: 52.1%
  inhibition at 0.123 µM: 53.5%
  cytotoxicity (in words): not cytotoxic
Fibroblast cells; fibroblast cells, Conc. 0.009 µM, read-out: % Inhibition
  inhibition at 0.009 µM: -61.2%

## O=c1ccc(=O)[nH][nH]1 [MALEIC HYDRAZIDE]
Rat [1]; ref WRPCA2 9;119;70
  Actual Endpoint (-log C), Rat Oral LD50: 1.47 -log C

## CNN [METHYLHYDRAZINE]
Rat [1]; ref XAWPA2 CWL
  Actual Endpoint (-log C), Rat Oral LD50: 3.158 -log C

## CC(=O)NN [Monoacetyl hydrazine]
Mouse
  Actual Endpoint (-log C), Carcinogenic Potency TD50 Mouse: 3.876 -log C

## CCOc1ccc(NC(C)=O)cc1 [Phenacetin, reference compound]
Rat [2]
  Actual Endpoint (-log C), Carcinogenic Potency TD50 Rat: 2.156 -log C

## S=C1NCCC(COc2ccccc2)O1 (stereo not drawn) [TIFEMOXONE, reference compound]
Rat [1]; ref ATSUDG 1;229;78
  Actual Endpoint (-log C), Rat Oral LD50: 2.006 -log C

## CC(=N)S [Thioacetamide]
Rat [2]
  Actual Endpoint (-log C), Carcinogenic Potency TD50 Rat: 3.815 -log C

## Cc1cccc(NC(N)=O)c1 [m-TOLYLUREA]
Rat [1]; ref IIFBA4 12;195;69
  Actual Endpoint (-log C), Rat Oral LD50: 2.053 -log C

## CCOc1ccccc1C(N)=O [o-Ethoxybenzamide]
Mouse
  Actual Endpoint (-log C), Carcinogenic Potency TD50 Mouse: 2.508 -log C

## O=Nc1ccc(Nc2ccccc2)cc1 [p-Nitrosodiphenylamine]
Rat [2]
  Actual Endpoint (-log C), Carcinogenic Potency TD50 Rat: 2.994 -log C

## Cc1ccc(NC(N)=O)cc1 [p-Tolylurea]
Mouse
  Actual Endpoint (-log C), Carcinogenic Potency TD50 Mouse: 2.863 -log C

## Methylhydrazine s
Mouse
  Actual Endpoint (-log C), Carcinogenic Potency TD50 Mouse: 3.785 -log C
